Legend:
[1] = tested on: hepatocytes of CD-1 mouse; assay: Hepatocyte incubation, metabolite identification, mouse; assay type: in vitro ADME; conditions: LC-MS/MS
Source text: (§1) Cryopreserved pooled hepatocytes were purchased from ThermoFisher Scientific (Waltham, Mass.), Xenotech, LLC (Kansas City, Kans.) and In Vitro ADMET Laboratories (Columbia, Md.), and the appropriate media were purchased from In Vitro ADMET Laboratories (Columbia, Md.) and Life Technologies (Carlsbad, Calif.). AOPI staining solution and phosphate buffer were obtained from Corning Life Sciences (Tewksbury, Mass.) and Nexcelom Bioscience (Lawrence, Mass.), respectively. All chemicals, reagents, and solvents used in analysis were of either analytical or HPLC grade.
(§2) Prior to incubations, the cryopreserved hepatocytes were thawed in a water bath at 37° C. One tube of cryopreserved hepatocytes was added to each 50-mL conical tube of cryopreserved hepatocyte recovery medium (UCRM) obtained from In Vitro ADMET Laboratories (Columbia, Md.). The cells were spun in a Beckman centrifuge (Brea, Calif.) with a GH 3.8 rotor at 740 rpm for 10 minutes at room temperature 4° C. […] The solution was gently mixed and cells were counted using a Cellometer (Nexcelom, Lawrence, Mass.). […]
(§3) The LC-MS/MS system was composed of a Shimadzu HPLC and an AB-SCIEX TripleTOF 5600 hybrid quadrupole and TOF mass spectrometer (Framingham, Mass.). […] The samples obtained from incubations with hepatocytes were analyzed under both negative and positive scan modes. […]

[2] = tested on: hepatocytes of Sprague Dawley rat; assay: Hepatocyte incubation, metabolite identification, rat; assay type: in vitro ADME; conditions: LC-MS/MS
Source text: as §1, §2, §3

CT26 tumor = assay: CT26 dual tumor model; conditions: all the lower doses (0.6-5 mg/kg), I.T., single dose
Protocol: For study B, treatment was started 8 days (0.6 mg/kg, and 10 mg/kg) after the tumor implantation, when the average tumors reached approximately 120 mm^3.
All the mice in the study have two subcutaneous CT26 tumors. The “treated tumor” indicates the tumor with compound direct administration, while “untreated tumor” indicates the tumor without direct compound administration. Tumor volume was followed throughout the experiment. Tumor volume is measured two times weekly after the start of treatment. Tumor burden is calculated from caliper measurements by the formula for the volume of a prolate ellipsoid (L×W^2)/2 where L and W are the respective orthogonal length and width measurements (mm).

[3] = tested on: hepatocytes of Cynomolgus monkey; assay: Hepatocyte incubation, metabolite identification, monkey; assay type: in vitro ADME; conditions: LC-MS/MS
Source text: as §1, §2, §3

[4] = tested on: hepatocytes of Beagle dog; assay: Hepatocyte incubation, metabolite identification, dog; assay type: in vitro ADME; conditions: LC-MS/MS
Source text: as §1, §2, §3

human PBMC [5] = assay: Ex vivo human PBMC stimulation assay, IFNβ mRNA (qPCR); conditions: 0.1-10 μM, 3 hr and 24 hr
Protocol: For IFNβ mRNA quantification, total RNA was isolated using the RNeasy Mini Kit (Qiagen, Germany) according to the manufacturer's protocol. IFNβ mRNA was quantified by qPCR assay. In brief, total RNA (400 ng to 1000 ng) was converted to cDNA in a 60-μl reaction volume using SuperScript VILO MasterMix (Life Technologies, USA). Obtained cDNAs (10 ng) were subsequently amplified using Applied Biosystems TaqMan expression assays using RNA-specific primers for IFNB1 (Hs01077958_s1), and GAPDH (Hs99999905_m1). A qPCR analysis was performed with TaqMan Fast Advanced Master Mix (Life Technologies, USA) on the Applied Biosystems Quantstudio 12K Flex Real-Time PCR System, with an initial 2-min step at 50° C. followed by 95° C. for 2 s and 40 cycles of 95° C. for 1 s and 60° C. for 20 s. Relative gene expression was calculated after normalization against the reference gene GAPDH using the 2-ΔΔCT method. Calculations were done using the Applied Biosystems Quantstudio 12K Flex software v1.2.2.

hepatocytes of human = assay: Hepatocyte incubation, metabolite identification, human; assay type: in vitro ADME; conditions: LC-MS/MS
Source text: as §1, §2, §3

human PBMC [6] = assay: Ex vivo human PBMC stimulation assay, IFNβ protein; assay type: cell-based; conditions: 0.1, 1, 10 uM, 24 hours
Protocol: After 24 hours of incubation the tubes were centrifuged at 1400 rpm for 5 minutes and supernatants were harvested. Supernatant were stored in −80° C. for subsequent IFNβ measurement. IFNβ measurement was done using Human IFN-β Base Kit (Meso Scale Diagnostics cat # K151ADA) and protocol provided by manufacturer was used. IFN-beta estimation was done by reading assay plate at MESO SECTOR Imager 2400 and using MSD Discovery Workbench 4.0 program. After 24 hours IFNβ protein was analyzed.
Results shown in Table 10 reflect an average of measurements conducted using five different donors.

metabolites identified in hepatocyte incubations [1]: No apparent metabolite
metabolites identified in hepatocyte incubations [2]: No apparent metabolite
metabolites identified in hepatocyte incubations [3]: No apparent metabolite
metabolites identified in hepatocyte incubations [4]: No apparent metabolite
metabolites identified in hepatocyte incubations (hepatocytes of human): No apparent metabolite
Structure (SMILES): O=[P@]1(S)OC[C@H]2O[C@@H]3[C@H](F)[C@@H]2O[P@](=O)(S)OC[C@H]2O[C@H]([C@H](F)[C@@H]2O1)n1cnc2c(ncnc21)NC/C=C/CNc1ncnc2c1ncn23 [Compound 1a]
anti-tumor effect on untreated tumors (CT26 tumor): tumor growth inhibition activity
induction of IFNβ mRNA in primary PBMC (human PBMC [5]): dose- and time-dependent manner
induction of primary human PBMC IFNβ protein production (human PBMC [6]): dose-dependent manner

— US20200055883A1, “CYCLIC DI-NUCLEOTIDES DERIVATIVE FOR THE TREATMENT OF CANCER” (Eisai R&D Management Co., Ltd., priority 2017, published 2020)
